In patent EP0399909A1, “Cosmetic composition against skin ageing” (ELF SANOFI, priority 1989, dated 1990):

Tested on: fibroblastes de peau humaine (ATCC No CRL 1513)
Assay: SAMe formation in cultured human skin fibroblasts with increasing betaine concentrations (HPLC determination)
Type: cell-based
Conditions: for Concentration de SAMe: 6 days culture, control without bétaïne 0,54
Procedure: L'effet exercé par la bétaïne sur la formation de SAMe a été mis en évidence par les résultats obtenus à des concentrations croissantes de bétaïne dans des fibroblastes de peau humaine (ATCC No CRL 1513) en culture. Plus précisément, les cellules (2.10⁴/ml) ont été mises en culture pendant 6 jours dans 250 ml de milieu de culture Dulbecco's Modified Eagle Medium (DMEM) contenant 20 % de sérum de veau foetal, en présence de concentrations croissantes (de 10⁻⁵ M à 5.10⁻⁴ M) de bétaïne. Au terme de la culture, les cellules ont été décollées à la trypsine (0,05 %) et à l'EDTA (0,02 %) et centrifugées. Le surnageant a été récupéré et précipité à l'acide trichloroacétique (0,2 N, v/v) puis centrifugé à nouveau. Le surnageant a été ensuite récupéré et lyophylisé. Les lyophylisats ont été repris avec de l'eau et analysés en HPLC (Colonne : Nucléosyl C8; Eluant : Solvant A (acétate de sodium 8,2 g; octylsulfonate de sodium 200 mg; acide citrique 4,2 g; EDTA 50 mg; eau q.s. pour 1 litre) 95 % et Solvant B (méthanol) 5 %) en utilisant un détecteur à 260 nm. La quantité de SAMe a été déterminée d'après une gamme étalon traitée dans les mêmes conditions expérimentales.

Question: Which results are given for `C[N+](C)(C)CC(=O)[O-]` [bétaïne, (CH₃)₃N⁺-CH₂-COO⁻]?
Answer: Concentration de SAMe (Concentration de bétaïne 1 (10⁻⁵ M)): 0,62 nMoles/10⁷ cellules; Concentration de SAMe (Concentration de bétaïne 5 (10⁻⁵ M)): 0,94 nMoles/10⁷ cellules; Concentration de SAMe (Concentration de bétaïne 10 (10⁻⁵ M)): 1,72 nMoles/10⁷ cellules; Concentration de SAMe (Concentration de bétaïne 50 (10⁻⁵ M)): 1,90 nMoles/10⁷ cellules; quantité d'adémétionine des fibroblastes de peau humaine (in vitro, even at very low concentrations): agit significativement
